According to US9855345B2, “Method for producing lipoplex for topical administration and antitumor agent using such lipoplex” (DELTA-FLY PHARMA, INC., priority 2014, dated 2018):
“Also recorded” adds a separate entry of the source.

What was measured:
[1] = TS-shRNA concentration in ascites and blood by RT-PCR after intraperitoneal lipoplex administration; type: in vivo, BALB/c nu/nu mice; settings: after i.p. administration of lipoplex (novel preparation (2)), ovarian cancer peritoneal metastasis mouse model
[2] = tested on: Luciferase-expressing human pancreatic cancer cells PANC-1; test: Therapeutic effect on peritoneal dissemination of pancreatic cancer (IVIS luciferase activity, survival); type: in vivo, BALB/c nu/nu mice; settings: PANC-1-luc model, lipoplex i.p. 20 μg TS-shRNA/mouse, Paclitaxel i.p. 10 mg/kg, days 8, 11, 14, 17, IVIS days 7-25
Procedure: The therapeutic effects of the TS-shRNA-carrying lipoplex (i.e., novel preparation (2)) prepared in the same manner as in Example 1 on peritoneal dissemination of pancreatic cancer were evaluated.
Luciferase-expressing human pancreatic cancer cells PANC-1 (PANC-1-luc, Pharmaron) were cultured and transplanted intraperitoneally into BALB/c nu/nu mice (6- to 8-week-old, female, Beijing HFK Bio-Technology Co., Ltd.) at 1.0×10^7 cells/mouse to prepare mouse models for peritoneal dissemination of PANC-1-luc.
In Example 7, the lipoplex (novel preparation (2)), Paclitaxel (Taxol, Pharmaron), or the lipoplex (novel preparation (2)) in combination with Paclitaxel was administered to different mouse models. A 9% sucrose solution was administered to the control group.
The lipoplex (novel preparation (2)) was administered intraperitoneally to mouse models in such a manner that 20 μg of TS-shRNA would be administered to each mouse per day, and such administration was carried out four times in total (i.e., 8, 11, 14, and 17 days after the cell transplantation). Paclitaxel was administered intraperitoneally to the relevant group of mouse models four times in total (i.e., 8, 11, 14, and 17 days after the cell transplantation) at 10 mg/kg. […]

Row | Compound | half-life of TS-shRNA in the ascites [1] | leakage of TS-shRNA into the blood [1] | increase in luciferase activity (tumor growth in the abdominal cavity) compared with the control group [2]
1 | TS-shRNA: TS-targeting shRNA, SEQ ID NO: 8, 5′-GUAACACCAUCGAUCAUGAUAGUGCUCCUGGUUGUCAUGAUCGAUGGUGUUACUU-3′ (shRNA hairpin in lipoplex, chemistry not given here) | approximately 8 hours | had not leaked | 
2 | CC(=O)O[C@H]1C(=O)[C@@]2(C)[C@H]([C@H](OC(=O)c3ccccc3)[C@]3(O)C[C@H](OC(=O)[C@H](O)[C@@H](NC(=O)c4ccccc4)c4ccccc4)C(C)=C1C3(C)C)[C@]1(OC(C)=O)CO[C@@H]1C[C@@H]2O [Paclitaxel] |  |  | suppressed; also recorded: strong tumor suppression effects
